{"source": "paper PMC11401861", "about": "“Assessment of the in vitro anti-diabetic activity with molecular dynamic simulations of limonoids isolated from Adalia lemon peels” (Scientific Reports, 2024)", "key": {"[1]": {"experiment": "Total antioxidant capacity (TAC), method of Prieto et al.", "description": "(§1) All in vitro biological activities of the limonoids-rich extract and the isolated compounds were assayed in triplicate at three different concentrations (50, 100, and 200 µg/mL).\nThe method proposed by Prieto et al.[30] was used to determine the total antioxidant capacity (TAC) expressed as mg […] equivalent per gram weight, using ascorbic acid at the same concentrations as a standard."}, "[2]": {"experiment": "Iron reducing power (IRP), method of Oyaizu"}, "[3]": {"experiment": "DPPH radical scavenging activity", "description": "as §1\nThe 1,1-Diphenyl-2-picryl-hydrazyl (DPPH) radical scavenging activity was evaluated using the method described by Rahman et al.[32]. Ascorbic acid was used as a positive control at the same concentrations. The inhibition percentage of the DPPH free radical was calculated. The median inhibitory concentration (IC50) of each tested sample was determined by plotting a curve using a series of sample concentrations against the percentage of DPPH inhibition."}, "[4]": {"experiment": "ABTS radical scavenging assay", "description": "as §1\n(§2) The ABTS scavenging capacities of the samples were compared with that of ascorbic acid. The percent inhibition of the ABTS radical was calculated. The IC50 of each tested sample was determined by plotting a curve using a series of sample concentrations against the percent of ABTS inhibition."}, "[5]": {"experiment": "Nitric oxide (NO) radical scavenging activity (Griess Illosvory reagent)", "description": "as §1\nas §2, with “The nitric oxide (NO) radical scavenging activity was estimated by the reaction with Griess Illosvory reagent based on the method proposed by Chakraborthy[34]. The NO” for “The ABTS”, “the NO” for “the ABTS”, “of NO” for “of ABTS”"}, "α-amylase [6]": {"molecular_target": "α-amylase", "experiment": "α-Amylase enzyme inhibition assay", "type": "biochemical", "description": "as §1\n(§3) The IC50 of each tested sample was determined by plotting a curve using a series of sample concentrations against the percent of enzyme inhibition."}, "α-glucosidase [7]": {"molecular_target": "α-glucosidase", "experiment": "α-Glucosidase enzyme inhibition assay", "type": "biochemical", "description": "as §1, §3"}, "α-amylase [8]": {"tested_on": "α-amylase", "experiment": "Native electrophoretic α-amylase isoenzyme pattern (PAGE)", "type": "biochemical", "details": "standard enzyme treated with 100 µg/mL", "description": "(§4) The relative mobility (Rf), band quantity (Qty) and band percent (B%) of the electrophoretically detected isoenzyme types on the PAGE plate were determined using the Quantity One software program (version 4.6.2). The equation proposed by Nei and Li[39] was used to calculate the percentages of similarity index (SI%) and physiological difference (Diff%)."}, "α-glucosidase [9]": {"tested_on": "α-glucosidase", "experiment": "SDS-PAGE electrophoretic α-glucosidase pattern", "type": "biochemical", "details": "100 µg/mL", "description": "as §4"}}, "data": [{"smiles": "CC1(C)OC(=O)C[C@H](O)[C@]2(C)[C@H]3CC[C@@]4(C)[C@H](c5ccoc5)OC(=O)[C@H]5O[C@]54[C@]3(C)C(=O)C[C@@H]12", "note": "[Cpd2, deacetylnomilin]", "values": [{"measurement": "TAC", "setting": "[1]; sample concentration 50 µg/mL", "value": "21.74 ± 0.06", "unit": "mg gallic acid/g"}, {"measurement": "TAC", "setting": "[1]; sample concentration 100 µg/mL", "value": "38.70 ± 0.10", "unit": "mg gallic acid/g"}, {"measurement": "TAC", "setting": "[1]; sample concentration 200 µg/mL", "value": "68.88 ± 0.19", "unit": "mg gallic acid/g"}, {"measurement": "IRP", "setting": "[2]; sample concentration 50 µg/mL", "value": "16.59 ± 0.06", "unit": "µg/mL"}, {"measurement": "IRP", "setting": "[2]; sample concentration 100 µg/mL", "value": "29.53 ± 0.10", "unit": "µg/mL"}, {"measurement": "IRP", "setting": "[2]; sample concentration 200 µg/mL", "value": "52.56 ± 0.19", "unit": "µg/mL"}, {"measurement": "IC50 against DPPH radical", "setting": "[3]; Fig. 2a", "value": "6.40 ± 0.02", "unit": "µg/mL"}, {"measurement": "DPPH Inhibition (%)", "setting": "[3]; sample concentration 50 µg/mL", "value": "18.90 ± 0.05", "unit": "%"}, {"measurement": "DPPH Inhibition (%)", "setting": "[3]; sample concentration 100 µg/mL", "value": "33.65 ± 0.09", "unit": "%"}, {"measurement": "DPPH Inhibition (%)", "setting": "[3]; sample concentration 200 µg/mL", "value": "59.90 ± 0.16", "unit": "%"}, {"measurement": "IC50 against ABTS radical", "setting": "[4]; Fig. 2a", "value": "6.02 ± 0.03", "unit": "µg/mL"}, {"measurement": "ABTS Inhibition (%)", "setting": "[4]; sample concentration 50 µg/mL", "value": "16.59 ± 0.06", "unit": "%"}, {"measurement": "ABTS Inhibition (%)", "setting": "[4]; sample concentration 100 µg/mL", "value": "29.53 ± 0.10", "unit": "%"}, {"measurement": "ABTS Inhibition (%)", "setting": "[4]; sample concentration 200 µg/mL", "value": "52.56 ± 0.19", "unit": "%"}, {"measurement": "IC50 against NO radical", "setting": "[5]; Fig. 2a", "value": "7.65 ± 0.04", "unit": "µg/mL"}, {"measurement": "NO Inhibition (%)", "setting": "[5]; sample concentration 50 µg/mL", "value": "13.75 ± 0.05", "unit": "%"}, {"measurement": "NO Inhibition (%)", "setting": "[5]; sample concentration 100 µg/mL", "value": "24.48 ± 0.09", "unit": "%"}, {"measurement": "NO Inhibition (%)", "setting": "[5]; sample concentration 200 µg/mL", "value": "43.58 ± 0.16", "unit": "%"}, {"measurement": "IC50 against α-amylase", "setting": "α-amylase [6]; Fig. 2b", "value": "5.07 ± 0.03", "unit": "µg/mL"}, {"measurement": "α-Amylase Inhibition (%)", "setting": "α-amylase [6]; sample concentration 50 µg/mL", "value": "13.49 ± 0.06", "unit": "%"}, {"measurement": "α-Amylase Inhibition (%)", "setting": "α-amylase [6]; sample concentration 100 µg/mL", "value": "24.01 ± 0.10", "unit": "%"}, {"measurement": "α-Amylase Inhibition (%)", "setting": "α-amylase [6]; sample concentration 200 µg/mL", "value": "42.74 ± 0.19", "unit": "%"}, {"measurement": "IC50 against α-glucosidase", "setting": "α-glucosidase [7]; Fig. 2b", "value": "3.89 ± 0.03", "unit": "µg/mL"}, {"measurement": "α-Glucosidase Inhibition (%)", "setting": "α-glucosidase [7]; sample concentration 50 µg/mL", "value": "9.34 ± 0.06", "unit": "%"}, {"measurement": "α-Glucosidase Inhibition (%)", "setting": "α-glucosidase [7]; sample concentration 100 µg/mL", "value": "16.63 ± 0.10", "unit": "%"}, {"measurement": "α-Glucosidase Inhibition (%)", "setting": "α-glucosidase [7]; sample concentration 200 µg/mL", "value": "29.59 ± 0.19", "unit": "%"}, {"measurement": "Change in electrophoretic α-amylase isoenzyme pattern", "setting": "α-amylase [8]", "value": "slight changes"}, {"measurement": "Diff% (physiological difference) of electrophoretic α-amylase pattern from the standard enzyme", "setting": "α-amylase [8]", "value": 33.33, "unit": "%"}, {"measurement": "SI% (similarity index) of electrophoretic α-amylase pattern to the standard enzyme", "setting": "α-amylase [8]", "value": 66.67, "unit": "%"}, {"measurement": "Diff% (decrease in the quantity of the identified α-glucosidase band)", "setting": "α-glucosidase [9]", "value": 40.64, "unit": "%"}, {"measurement": "Qty (band quantity) of the α-glucosidase band", "setting": "α-glucosidase [9]", "value": 11.08}, {"measurement": "melting point", "value": 254, "unit": "°C"}]}]}
